Test results from paper PMC11249646, “Small-Molecule Disruptors of the Interaction between Calcium- and Integrin-Binding Protein 1 and Integrin αIIbβ3 as Novel Antiplatelet Agents” (ACS Pharmacology & Translational Science, 2024).
Read-outs that look alike come from different tables or passages of the source.

Molecular target: T1, CIB1 and αIIb interaction (CIB1-GST : F-αIIb peptide) (Homo sapiens, UniProt Q99828)
T1 construct: made in house; host or cells: BL-21 plus RIL cells (E. coli)
T1 sequence (Q99828 1-191): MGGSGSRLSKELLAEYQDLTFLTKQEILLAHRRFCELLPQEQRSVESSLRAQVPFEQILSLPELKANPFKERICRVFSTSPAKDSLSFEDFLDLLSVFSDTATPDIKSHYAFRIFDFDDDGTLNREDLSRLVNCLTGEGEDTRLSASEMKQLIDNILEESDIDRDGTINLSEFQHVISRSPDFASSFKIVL
Assay: FP assay, 1536-well qHTS format (primary and confirmatory screen)
Type: binding
Details: for Efficacy (%): negative = inhibition; for Curve Class: negative sign = inhibitory curve; for IC50: read-out: IC50

[1] = qHTS primary screen hits, Table S2
[2] = qHTS primary screen hits, Table S2, several classes where COUNT > 1
[3] = qHTS primary screen of LOPAC/NPACT libraries

Compound	Efficacy (%) [1] [%]	Curve Class [1]	IC50 [1] [µM]	Curve Class [2]	also measured
O=C(O)C(F)(F)F.c1ccc(-n2cc(-c3nnc4n3CCCCC4)cn2)cc1 [NCGC00249642-01]	-39	-2.4	89.1		
Cc1cc(NS(=O)(=O)c2ccc(Nc3nc(-c4ccc(C)c(C)c4)cs3)cc2)no1.O=C(O)C(F)(F)F [NCGC00249742-01]	-32		44.7	-2.4	
CC(=O)N1CCN(c2ccc(NC[C@H]3CO[C@](Cn4ccnc4)(c4ccc(Cl)cc4Cl)O3)cc2)CC1 [NCGC00250372-03]	-45		44.7	-2.4	
N#Cc1ccc(NS(=O)(=O)c2ccc(NC(=O)Cc3ccc(Cl)c(Cl)c3)cc2)cc1.O=C(O)C(F)(F)F [NCGC00253445-02]					Efficacy (%) (qHTS FP screen hits, Table S2): -18%; IC50 (qHTS FP screen hits, Table S2): 3.5 µM
COc1ccnc2c1CCCCC2[S+]([O-])c1nc2ccccc2[nH]1 (centres unmarked) [NCGC00253591-01]	-30		56.2	-2.2	
Cc1cnc(-c2ccccc2C(C)C)nc1NC(C)c1ccc(-c2cccnc2)cc1.O=C(O)C(F)(F)F (centres unmarked) [NCGC00253889-01]	-56	-2.4	56.2		
CN(Cc1cnc2nc(N)nc(N)c2n1)c1ccc(C(=O)N[C@@H](CCC(=O)O)C(=O)O)cc1 [NCGC00260705-01]	-58	-2.2	44.7		
COc1ccc(Br)cc1S(=O)(=O)NC(=O)/C=C/c1ccccc1Cc1ccc2ccccc2c1 [NCGC00260960-01]	-50	-2.2	22.4		
CN1C[C@H](C(=O)N[C@]2(C)O[C@@]3(O)[C@@H]4CCCN4C(=O)[C@H](Cc4ccccc4)N3C2=O)C[C@@H]2c3cccc4[nH]cc(c34)C[C@H]21.CS(=O)(=O)O [NCGC00261042-01]					Efficacy (%) [3]: -32%; Curve Class [3]: -2.4; IC50 [3]: 56.2 µM
O=c1c(-c2ccc(O)cc2)coc2cc(O)ccc12 [NCGC00261097-01]					Efficacy (%) [3]: -11%; Curve Class [3]: -2.4; IC50 [3]: 56.2 µM
O=C1c2ccccc2-c2n[nH]c3cccc1c23 [NCGC00261158-01]	-52	-1.2	14.1		
O=C1NCc2c1c1c3ccccc3[nH]c1c1[nH]c3ccccc3c21 [NCGC00261167-01]					Efficacy (%) [3]: -24%; Curve Class [3]: -1.4; IC50 [3]: 1.4 µM
O=C1NC(=O)/C(=C/c2ccc3c(c2)OC(F)(F)O3)S1 [NCGC00261190-01]	-33	-1.2	17.8		
CCOC(=O)N1CCN([N+]([O-])=NOc2ccc([N+](=O)[O-])cc2[N+](=O)[O-])CC1 [NCGC00261300-01]	-44		21.3		
Cl.O=c1cc(N2CCOCC2)oc2c(-c3ccccc3)cccc12 [NCGC00261395-01]	-52	-2.2	50.1		
O=c1c(O)c(-c2ccc(O)cc2O)oc2cc(O)cc(O)c12 [NCGC00261461-01]					Efficacy (%) [3]: -26%; Curve Class [3]: -1.2; IC50 [3]: 4 µM
CCCCc1ncc(/C=C(\Cc2cccs2)C(=O)O)n1Cc1ccc(C(=O)O)cc1.CS(=O)(=O)O [NCGC00261493-01]					Efficacy (%) [3]: -9%; Curve Class [3]: -1.4; IC50 [3]: 31.6 µM
COC(=O)C1=C(C)NC(C)=C(C(=O)OCCN(C)Cc2ccccc2)C1c1cccc([N+](=O)[O-])c1.Cl (centres unmarked) [NCGC00261494-01]					Efficacy (%) [3]: -16%; Curve Class [3]: -1.2; IC50 [3]: 3.5 µM
O=C1NC(=O)/C(=C/c2ccc3nccnc3c2)S1 [NCGC00261632-01]					Efficacy (%) [3]: -20%; Curve Class [3]: -1.2; IC50 [3]: 7.9 µM
CCN(CC)CCOc1ccc(Nc2ncc3cc(-c4c(Cl)cccc4Cl)c(=O)n(C)c3n2)cc1.Cl.Cl.O [NCGC00261745-01]	-36	-2.2	50.1		
O=C1c2c(O)cc(O)cc2OC(c2ccc(O)c(O)c2)C1O (centres unmarked) [NCGC00261882-01]					Efficacy (%) [3]: -14%; Curve Class [3]: -1.2; IC50 [3]: 10 µM
CN1CCN(CCCN2c3ccccc3Sc3ccc(C(F)(F)F)cc32)CC1.Cl.Cl [NCGC00261917-01]					Efficacy (%) [3]: -35%; Curve Class [3]: -2.4
O=C(O)CCCC[P+](c1ccccc1)(c1ccccc1)c1ccccc1.[Br-] [NCGC00261975-01]	-44		56.2	-2.4	
O=C(O)C(F)(F)F.O=C(c1ccc2c(c1)ncn2-c1ccc(C(F)(F)F)cc1)N1CCCCC1 [NCGC00262230-01]	-43	-2.2	44.7		

Compound	Efficacy (%) [1] [%]	Curve Class [1]	IC50 [1] [µM]	Curve Class [2]	also measured
O=C(Cn1nc(-c2ccc(F)cc2)ccc1=O)NCCc1ccccc1.O=C(O)C(F)(F)F [NCGC00262332-01]	-24	-2.4	56.2		
CC(C)COc1ccc(-c2ccc(=O)n(CC(=O)NCCc3ccccc3)n2)cc1.O=C(O)C(F)(F)F [NCGC00262348-01]	-38	-2.4	56.2		
O=C(O)C(F)(F)F.O=C(c1cnc(N2CCCCC2)c2ccccc12)N1CCN(c2ccccc2)CC1 [NCGC00262736-01]	-64	-3	31.6		
O=Cc1ccc(O)c(O)c1O [NCGC00262933-01]	-62		56.2	-2.4	
Cc1ccc(S(=O)(=O)Nc2ccc(OC(F)(F)F)cc2C(=O)Nc2nc(-c3ccccc3)cs2)cc1.O=C(O)C(F)(F)F [NCGC00262991-01]	-27	-2.4	44.7		
CCCCCCCc1ccc(CCc2cccc(O)c2C(=O)O)cc1 [NCGC00263121-01]	-33		24.1	-3	
COc1ccccc1-c1cccc(-c2c(O)c3cc(C#N)c(Cl)cc3[nH]c2=O)c1 [NCGC00263230-01]	-24		62.2	-2.4	
Nc1nc2[nH]cnc2c(=S)[nH]1 [NCGC00263442-01]	-56	-3	79.4		
CN(C)[C@@H]1C(=O)C(C(=O)NCN2CCCC2)=C(O)[C@@]2(O)C(=O)C3=C(O)c4c(O)cccc4[C@@](C)(O)[C@H]3C[C@@H]12 [NCGC00263906-02]	-27	-2.4	56.2		
COc1cccc2c1C(=O)c1c(O)c3c(c(O)c1C2=O)C[C@@](O)(C(=O)CO)C[C@@H]3O[C@H]1C[C@H](N)[C@@H](O)[C@H](C)O1 [NCGC00263918-04]	-58		18.5		
Cc1ccc(C)n1-c1cnccc1C(=O)O.O=C(O)C(F)(F)F [NCGC00273496-01]	-39	-2.4	44.7		
Cc1ccc(C)n1-c1ccc(C(=O)O)cc1.O=C(O)C(F)(F)F [NCGC00273552-01]	-38		44.7	-2.2	
Cc1ccc(S(=O)(=O)Nc2ccc(O)c3ccccc23)c(C)c1.O=C(O)C(F)(F)F [NCGC00273983-01]	-34		56.2	-2.4	
Cc1ccc(C)n1-c1ccccc1C(=O)O.O=C(O)C(F)(F)F [NCGC00274054-01]	-40		50.1	-2.4	
Nc1nc2c(s1)C(c1ccccc1Cl)CC(O)=N2 (centres unmarked) [NCGC00284018-04]	-37	-2.4	53.2		
CC(=O)NCc1ccc(-c2csc(Nc3cccc(C)c3)n2)o1.O=C(O)C(F)(F)F [NCGC00304445-03]	-38		44.7	-2.4	
CC(=O)NCc1ccc(-c2csc(Nc3cc(C)cc(C)c3)n2)o1.O=C(O)C(F)(F)F [NCGC00314997-03]	-84		50.1	-2.4	
CCCc1ccc(-c2csc(NC(=O)c3ccncc3NS(=O)(=O)c3ccc(C)cc3)n2)cc1.O=C(O)C(F)(F)F [NCGC00318955-01]	-35		50.1	-2.4	
COc1cccc(-c2csc(NC(=O)c3ccncc3NS(=O)(=O)c3ccc(C)cc3)n2)c1.O=C(O)C(F)(F)F [NCGC00319006-01]	-58		47.4	-2.2	
COc1ccc(-c2csc(NC(=O)c3ccncc3NS(=O)(=O)c3ccc(C)cc3)n2)cc1.O=C(O)C(F)(F)F [NCGC00319009-01]	-53		56.2	-2.4	
COc1cccc2c1C(=O)c1c(O)c3c(c(O)c1C2=O)C[C@@](O)(C(=O)CO)CC3OC1CC(N2CCOC(OC)C2)C(O)C(C)O1 (some centres unmarked) [NCGC00319019-01]	-40	-1.4	10		
Cc1cc(SCc2sc(-c3ccc(Cl)cc3)nc2C)ccc1OCC(=O)O.O=C(O)C(F)(F)F [NCGC00319056-01]	-32	-2.4	56.2		
Cc1ccc(S(=O)(=O)Nc2cnccc2C(=O)Nc2cccc3ccccc23)cc1.O=C(O)C(F)(F)F [NCGC00343900-01]	-32	-2.4	50.1		
Cc1ccc(S(=O)(=O)Nc2cnccc2C(=O)Nc2nc(C(=O)O)cs2)cc1.O=C(O)C(F)(F)F [NCGC00343903-01]	-36		50.1	-2.4	
